Source: US20230381202A1, “COMPOSITIONS AND METHODS FOR TREATING CARDIOVASCULAR RELATED DISORDERS” (The Regents of the University of Michigan, priority 2020, published 2023)

How the values were obtained:
C57BL/6J mice [1] = test: Laser-induced cremaster arteriole thrombosis model; type: in vivo, mouse; details: IV 24 hours before injury; ML355 1.5 mg/kg, sHDL 50 mg/kg
Method: Male C57BL/6J mice (n=3) were intravenously dosed with the following treatments: 1) saline control (equivalent volume); 2) ML355 (1.5 mg/kg); 3) sHDL (50 mg/kg); or 4) ML355-sHDL (sHDL at 50 mg/kg and ML355 at 1.5 mg/kg). 24 hours post-administration, mice were anesthetized and surgically prepared as above described. DyLight 647-conjugated rat anti-mouse platelet GP11:43 antibody (0.1 μg/g; X649; EMFRET Analytics) was administered by jugular vein cannula prior to vascular injury. Multiple independent thrombi (8-10) were induced in the arterioles (30-50 μm diameter) in each mouse (3 mice per group) by a laser ablation system. All captured images were analyzed for change in fluorescent intensity over time of thrombus formation by subtracting fluorescent background defined on an uninjured section of the vessel using the Slidebook program. To monitor and compare dynamic thrombus formation among different treatment groups, the relative fluorescent intensity of Alexa Flour 647-labled platelets (recruited within thrombus) was plotted using the mean fluorescence at each time point. Data were evaluated for significance with two-way ANOVA and Mann-Whitney test for nonparametric data using Prism 6 software (Graphpad, La Jolla, CA, USA).

whole blood = test: Coagulation tests by thromboelastography; type: in vivo, mouse; details: 24 hours post IV; ML355 1.5 mg/kg, sHDL 50 mg/kg
Method: Male and female C57BL/6J mice (n=6) were intravenously injected with vehicle control (equivalent volume of saline), ML355 (1.5 mg/kg), sHDL (50 mg/kg) or ML355-sHDL (sHDL at 50 mg/kg and ML355 at 1.5 mg/kg), respectively. 24 hours after administration, mice were anesthetized by intraperitoneal injection of ketamine/xylazine mixture as described above. Whole blood was collected via vena cava using a 25 G syringe containing sodium citrate 3.8% (blood to citrate volume ratio is […]). 340 μL citrated blood was mixed with 20 μL CaCl2 (0.2 mol/L), and viscoelastic properties of whole blood clot formation was studied under low shear stress using a Heamoscope TEG 5000 Thrombelastograph Hemostasis Analyzer (Haemonetics Corp., Braintree, Massachusetts, USA) according to the manufacturer's instructions. Major coagulation parameters including R time (time to formation of the initial fibrin threads), Alpha angle (the rapidity with which the clot forms), K time (the time until the clot reaches a certain strength) and maximum amplitude (clot's maximum strength) were analyzed and compared among different groups.

washed mouse platelets = test: Ex vivo washed mice platelet activation inhibition test (thrombin-induced aggregation); type: in vivo; details: for platelet aggregation: 24 hours after IV ML355 1.5 mg/kg, sHDL 50 mg/kg
Method: Male and female C57BL/6J mice were divided into four groups (n=4) and intravenously dosed with the following formulations: 1) control vehicle (equivalent volume); 2) ML355 (1.5 mg/kg); 3) sHDL (50 mg/kg); or 4) ML355-sHDL (sHDL at 50 mg/kg and ML355 at 1.5 mg/kg). 24 hours after administration, mice were sacrificed under terminal anesthesia. […] Mouse platelet preparation was performed as previously described (44, 45). Murine platelets were resuspended at 3×10^8 platelets/mL in Tyrode's buffer. Mouse platelet aggregation was induced by various doses of thrombin (0.1-0.5 nM) and measured with a lumi-aggregometer using the same method described above.

C57BL/6J mice [2] = test: FeCl3-induced carotid artery thrombosis model; type: in vivo, mouse; details: IV 24 hours before 10% FeCl3 injury
Method: Male and female C57BL/6J mice (n=6) were intravenously injected with vehicle control (equivalent volume of saline), ML355 (1.5 mg/kg), sHDL (50 mg/kg) or ML355-sHDL (sHDL at 50 mg/kg and ML355 at 1.5 mg/kg), respectively. 24 hours post-administration, mice were anesthetized as described above and tail veins were injected with a DyLight 488 anti-GPIb (1 μg/g; Emfret, Elbelstadt, Germany) to label circulating resting platelets in mice prior to intravital microscopy imaging. The mice were placed on a heating pad and the right common carotid artery was prepared under the dissecting microscope. Then, the mice were placed on the microscopic stage and blood flow in the carotid artery was visualized under 10× air objective using a Zeiss Axio Examiner Z1 upright fluorescent microscopy. Carotid artery injury was induced by topically placing a 10% FeCl3 saturated Whatman paper for 3 minutes under recording. Images of platelet adhesion and the dynamics of thrombus formation were recorded for 30 minutes using a high-speed sCMOS camera using Slidebook 6.0.

platelets = test: Phosphatidylserine exposure on platelets; type: in vivo, mouse; details: 1, 6 and 24 hours post IV; compared to resting platelets
Method: Male and female C57BL/6J mice (n=6) were intravenously dosed with the following treatments: 1) Saline control (equivalent volume); 2) ML355 (1.5 mg/kg); 3) sHDL (50 mg/kg); or 4) ML355-sHDL (sHDL at 50 mg/kg and ML355 at 1.5 mg/kg). At different time points post administration (1, 6 and 24 hours), the phosphatidylserine-exposure over time course in platelets from different groups were quantified by flow cytometry. Briefly, whole blood was collected from the saphenous vein and incubated with PE anti-mouse CD41 Antibody (BioLegend #133906) for platelet labeling and Annexin V, Alexa Fluor™ 647 conjugate (phosphatidylserine-exposure) (Thermo Fisher Scientific). The mean fluorescent intensity of Annexin in platelets was quantified by flow cytometry. In addition, blood collected from mice prior to treatment was taken as resting platelets (negative control) and blood stimulated with PAR4-AP (200 μM) was used as activated platelets (positive control).

C57BL/6J mice [3] = test: Mouse tail bleeding assay; type: in vivo; details: 24 hours post IV; ML355 1.5 mg/kg, sHDL 50 mg/kg
Method: Male and female C57BL/6J mice (n=6) were intravenously dosed with the following treatments: 1) vehicle control (equivalent volume); 2) ML355 (1.5 mg/kg); 3) sHDL (50 mg/kg); or 4) ML355-sHDL (sHDL at 50 mg/kg and ML355 at 1.5 mg/kg). The tail bleeding assay was performed post 24 hour of treatment as previously described (44, 56). Briefly, mice were anesthetized as described above and placed on a heating pad. Five millimeters of tail tip was excised, and the tails were immediately immersed in 14 mL of sterile saline at 37° C. Bleeding time was recorded as the cessation of blood flow from the tail for at least […] using a stopwatch. The amount of blood loss from tail tip was quantified by measuring hemoglobin using Drabkin's reagent (Sigma). Briefly, blood samples were pelleted at 500 g for 10 minutes at room temperature, and the pellet was resuspended in 5 mL Drabkin's Reagent and incubated at room temperature for 15 minutes. Amount of hemoglobin lost was quantified by comparing the absorbance of the samples at 540 nm using SpectraMax i3 microplate reader (Molecular Devices LLC., San Jose, CA) to a standard curve of bovine hemoglobin in Drabkin's reagent.

[4] = pH 7.4 PBS; cited from earlier work
washed human platelets = test: In vitro washed human platelet aggregation test (thrombin-induced); type: cell-based; details: ML355 10 μM, sHDL 100 μg/mL, 15 minutes
Method: Human platelets were prepared and aggregation was assayed as described previously (44, 45, 56). Platelets were incubated with DMSO (equivalent volume to dissolve ML355) and treated with control, ML355 (10 μM), sHDL (100 μg/mL), or ML355-sHDL (sHDL at 100 μg/mL and ML355 at 10 μM) for 15 minutes. In addition, untreated platelets were included as control. Platelet aggregation was induced by various doses of thrombin (0.1-1 nM) as reported in previous studies (44). Aggregation was measured in response to thrombin with a lumi-aggregometer (Model 700D; Chrono-Log) under stirring conditions at 1100 rpm at 37° C.

In the case of `COc1cccc(CNc2ccc(S(=O)(=O)Nc3nc4ccccc4s3)cc2)c1O` [ML355, N-2-benzothiazolyl-4-[[(2-hydroxy-3-methoxyphenyl)methyl]amino]-benzenesulfonamide], the “inhibition of thrombus formation (platelet accumulation in thrombi)” value (C57BL/6J mice [1]) was “varying levels of inhibition”, the “coagulation (TEG parameters R time, K time, alpha angle, MA)” value (whole blood) was “did not compromise the coagulation” and the platelet aggregation (washed mouse platelets; 0.1 nM thrombin) was 20.3±3.5%. For the same molecule, the platelet aggregation (washed mouse platelets; 0.25 nM thrombin) was 32.6±6.6%, the “inhibitory effects on platelet aggregation” value (washed mouse platelets; 0.5 nM thrombin, 24 hours after IV dosing) was “overcome” and the “thrombus growth (and vessel occlusion)” value (C57BL/6J mice [2]) was “delayed and unstable”. For the same molecule, the “mean vessel occlusion time” value (C57BL/6J mice [2]; ML355 1.5 mg/kg, sHDL 50 mg/kg) was 11.0 ± 2.3 min, the platelet phosphatidylserine exposure (platelets) was “did not increase” and the “blood loss evaluated by measuring hemoglobin” value (C57BL/6J mice [3]) was “no effect”. For the same molecule, the tail bleeding time (C57BL/6J mice [3]) was “did not prolong”, the estimated solubility [4] was under 5 µg/mL and the platelet aggregation (washed human platelets; 0.1 nM thrombin) was 5.6±2.5%. It also gave a platelet aggregation (washed human platelets; 0.25 nM thrombin) of 40.4±6.8% and a platelet aggregation (washed human platelets; 0.5 nM thrombin) of 76.4±4.7%.
